Earlier results in patent US9814693B2 (priority 2012, dated 2017).
Counter-ions that a name gives are not always drawn.

Columns and labels:
CML = conditions: first-line
mice [1] = conditions: after the start of treatment (time not given); these and previous studies
L1210 leukemia = conditions: mice, early form of L1210 leukemia, various doses
mice [2] = tested on: mice
[3] = tested on: Ehrlich ascites tumor cells
[4] = normal brain and intracerebral tumor tissue
Barle's L cells = conditions: percentage of control cloning efficiency
rabbits [5] = tested on: rabbits
erythrocytes [6] = conditions: fresh whole dog blood, 37° C., within 2 hours
NK/Ly tumor = conditions: NK/Ly tumor-bearing mice
S180 ascites tumors = conditions: S180 ascites tumor
rabbits [7] = conditions: i.v. 2.5 and 0.25 mg/kg every second day for 30 or 70 days
[8] = solution in distilled water
[9] = compared with all the diepoxyhexitols
[10] = tested on: Chinese hamster cell cultures; conditions: low doses, in vitro
[11] = tested on: intracerebral murine ependymoblastomas; conditions: intracerebral tumors
erythrocytes [12] = tested on: erythrocytes
[13] = not given; remark: listed apart in the source
[14] = in vivo

Cc1ccc(NC(=O)c2ccc(CN3CCN(C)CC3)cc2)cc1Nc1nccc(-c2cccnc2)n1 [Gleevec, imatinib mesylate]
estimated overall survival rate (CML; CML patients, following two years): 91% | patients with cytogenetic response (CML): up to 60% | patients free of disease worsening (CML; following two years): ~90%

CS(=O)(=O)OC[C@@H](O)[C@@H](O)[C@H](O)[C@H](O)COS(C)(=O)=O [mannitol myleran]
drug accumulation of five cytostatic hexitol derivatives (mice [1]): 45%

OC(C1CO1)C(O)C1CO1 (centres unmarked) [dianhydrogalactitol, 1,2:5,6-Dianhydrogalactitol]
prolongation of lifespan (L1210 leukemia): 50%-200% | cytomorphologic effect (HeLa cell cultures; 100-μg dose): complete cellular disintegration | dose dependence of distribution and elimination (3 and 6 mg/kg, one dog): dose-independent | mean Cl (dogs, i.v. 3 and 6 mg/kg): 1.4 L/h/kg | mean value of V (dogs, i.v. 3 and 6 mg/kg): 0.462 L/kg | mean value of VDss (dogs, i.v. 3 and 6 mg/kg): 0.779 L/kg | mean t1,2,β (dogs, i.v. 3 and 6 mg/kg, intact drug in plasma): 26.6 min | atrophy of the spleen and lymph nodes, compared with dibromodulcitol (mice [2]; acute toxicity): more marked | time of death, compared with dibromodulcitol (mice [2]; acute toxicity): died earlier | symptoms at the LD50 (mice [2]; animals treated with the LD50 (15 mg/kg)): gastrointestinal symptoms (including weight loss) were dominant | LD80 (mice [2]; mice, single dose): 18 mg/kg | LD50 (mice [2]; mice, single dose, survivors observed 21 days): 15 mg/kg | multinucleated cells, compared with mannitol mustard or dibromodulcitol ([3]; Ehrlich ascites tumor cells): more frequently | time of earliest detectable ultrastructural effects ([3]; larger dose (7.5 mg/kg i.p.), after administration): 3 h | time at which ultrastructural effect could be detected ([3]; smaller doses (3.7 mg/kg i.p.), after treatment): 72 to 96 h | blood-brain barrier passage [4]: rapidly crosses the blood-brain barrier | concentration giving 50 percent survival (cloning efficiency) (Barle's L cells): 4 µg/mL | animals recovered after treatment (Ehrlich ascites tumor): Fifty | tumor weight inhibition (Ehrlich ascites tumor; 0.75 mg/kg (one-sixtieth of the LD50)): 68% | effect on platelet counts (rabbits [5]; repeated injections of smaller doses (17×2.5, 17×0.25 mg/kg i.v.)): no changes in platelet counts | effect on platelets (rabbits [5]; single 14.0 mg/kg i.v.): persistent thromobocytopenia | decrease in the granulocyte count (rabbits [5]; single 14.0 mg/kg i.v., disappeared in 30 days): 50% | LD50 (rabbits [5]; single i.v. dose): 14.0 mg/kg | incubated dose bound to erythrocytes (erythrocytes [6]): 37.7% | increase in lifespan (NK/Ly tumor): 200% | animals recovered after treatment (S180 ascites tumors): Fifty | most marked alterations (rabbits [7]): cell population reductions (especially of the myeloid elements) in the bone marrow | drug accumulation of five cytostatic hexitol derivatives (mice [1]): 0% | local effect of the solution [8]: slight, locally irritating effect | death, time after injection (beagle dogs; dog 1, 6 mg/kg i.v. on day 8 after 3 mg/kg on day 1): 7 days | death, time after administration (beagle dogs; dog 2, 6 mg/kg i.v.): 12 days | doses at which toxicity occurs (beagle dogs; dog, i.v.): greater than 3 mg/kg | findings associated with death (beagle dogs; dogs given 6 mg/kg i.v.): bone marrow hypoplasia, leucopenia, and thrombocytopenia | chemical stability [9]: most chemically stable | chromosome aberrations [10]: induced characteristic chromosome aberrations | antitumor activity [11]: activity | initially present drug remaining with the erythrocytes (erythrocytes [12]; after dialysis for 14 hours): 36% | initially erythrocyte-bound drug lost to the dialysis medium (erythrocytes [12]; within 2 hours, pH 7.4, 37° C.): 50% | changes in the parenchymal organs (rats; single 10, 5 or 2.5 mg/kg dose, 1 hour to 21 days): No changes | LD50 (rats; single dose): 10 mg/kg

O[C@H]([C@H](O)[C@@H](O)CBr)[C@H](O)CBr [dibromodulcitol]
prolongation of lifespan (L1210 leukemia): 40% | mitotic index (HeLa cell cultures; 10-μg dose, untreated control 2.9%): 0 | solubility in water [13]: hardly soluble in water | concentration giving 50 percent survival (cloning efficiency) (Barle's L cells): 75 µg/mL | effect on the tumor (Ehrlich ascites tumor; doses equitoxic to 0.75 mg/kg dianhydrogalactitol): no effects | relative effectiveness (Harding-Passey melanoma): more effective than dianhydrogalactitol | increase in lifespan (NK/Ly tumor): 90% | drug accumulation of five cytostatic hexitol derivatives (mice [1]): 62% | absorption by the oral route [14]: rapid and fairly complete
